The source of these data is patent US20080090805A1, “CB-1 MODULATING COMPOUNDS AND THEIR USE” (ACADIA PHARMACEUTICALS INC., priority 2005, published 2008).

This assay deals with native CB1 receptors (Rattus norvegicus, UniProt P20272). The experiment in a line: CB1 receptor rat binding assay ([3H]SR141716A, rat brain membranes). Particulars: rat brain membranes.
[1] abbreviates: [3H]SR141716A, read-out: Binding rat pKi (converted).

Read-outs that look alike come from different tables or passages of the source.

Chain of native CB1 receptors (P20272 whole entry): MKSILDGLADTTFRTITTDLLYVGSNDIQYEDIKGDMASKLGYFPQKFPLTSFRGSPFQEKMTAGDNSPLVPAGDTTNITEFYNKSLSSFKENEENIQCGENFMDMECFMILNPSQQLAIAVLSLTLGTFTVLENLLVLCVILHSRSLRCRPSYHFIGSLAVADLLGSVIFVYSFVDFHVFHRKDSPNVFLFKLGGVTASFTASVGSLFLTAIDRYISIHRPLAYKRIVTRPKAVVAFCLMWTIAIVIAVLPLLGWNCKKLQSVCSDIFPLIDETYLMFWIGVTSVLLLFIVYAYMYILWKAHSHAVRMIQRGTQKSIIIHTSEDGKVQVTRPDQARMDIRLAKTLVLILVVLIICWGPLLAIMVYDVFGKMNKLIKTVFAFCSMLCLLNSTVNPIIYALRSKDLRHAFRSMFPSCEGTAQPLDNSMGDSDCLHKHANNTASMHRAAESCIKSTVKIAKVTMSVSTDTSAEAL

As for `O=C(NNC(=O)c1ccc2c(c1)N=C(c1cccc(Br)c1)c1ccccc1S2)c1ccccc1`, the “Binding rat Inh %” value ([3H]SR141716A) was 73%. Also, the Ki under setting [1] was 100 nM. Turning to `Cc1ccc(N2CCN(C(=O)c3ccc4c(c3)N=C(c3ccc(Cl)cc3)c3ccccc3S4)CC2)c(C)c1` [drawing 1546], the Ki under setting [1] is 100 nM.

On to `O=C(NCCc1cccnc1)c1ccc2c(c1)N=C(c1cccc(F)c1)c1ccccc1S2` [drawing 1333], for which, for the setting “[3H]SR141716A”, the “Binding rat Inh %” value is 94%. Besides, the Ki under setting [1] was 25.1 nM. Regarding `CCCC1=Nc2cc(C(=O)NCCN(CC)c3ccccc3)ccc2Sc2ccccc21` [drawing 1292], under setting [1], the Ki is 20 nM. `Cc1ccc(N2CCN(C(=O)c3ccc4c(c3)N=C(c3ccc(Cl)cc3)c3ccccc3S4)CC2)c(C)c1` [Example 19]: the Ki (3 nM [3H]SR141716A, read-out: Rat Brain pKi (converted)) was 50.1 nM. For `O=C(NN1CCCCC1)c1ccc2c(c1)N=C(N1CCCCC1)c1ccccc1S2` [drawing 1397], the Ki under setting [1] is 39.8 nM. Take `O=C(NCCc1ccccn1)c1ccc2c(c1)N=C(c1ccc(Cl)cc1F)c1ccccc1S2` [drawing 1398]: the “Binding rat Inh %” value ([3H]SR141716A) is recorded as 74%. The Ki under setting [1] was 39.8 nM. In the case of `O=C(NN1CCCCC1)c1ccc2c(c1)N=C(c1ccc(Cl)s1)c1ccccc1S2` [drawing 1385], the “Binding rat Inh %” value ([3H]SR141716A) was 88%. Also, the Ki under setting [1] is 5.01 nM. Turning to `O=C(NN1CCCCC1)c1ccc2c(c1)N=C(c1cccc(Cl)c1)c1ccccc1O2`, the Ki under setting [1] is 39.8 nM. `O=C(NCc1ccccc1)c1ccc2c(c1)N=C(c1cccc(Cl)c1)c1ccccc1S2` [drawing 1328]: the Ki under setting [1] was 3.16 nM. `O=C(NCc1cccc(Cl)c1)c1ccc2c(c1)N=C(C1CCCCC1)c1ccccc1S2` [drawing 1338]: the Ki under setting [1] was 3.98 nM. As to `CCCNC(=O)c1ccc2c(c1)N=C(c1ccc(Br)cc1)c1ccccc1S2` [drawing 1259], under “[3H]SR141716A”, the “Binding rat Inh %” value worked out at 65%. Also, the Ki under setting [1] is 15.8 nM. With `CCN(CCNC(=O)c1ccc2c(c1)N=C(c1ccc(F)cc1)c1ccccc1S2)c1ccccc1` [drawing 1297], the Ki under setting [1] is 2.51 nM. For the molecule `O=C(NCc1ccco1)c1ccc2c(c1)N=C(c1cccc(F)c1)c1ccccc1S2` [drawing 1252], the “Binding rat Inh %” value ([3H]SR141716A) stood at 93%. For the same molecule, under setting [1], the Ki is 15.8 nM. `O=C(NNCC(F)(F)F)c1ccc2c(c1)N=C(c1ccc(Cl)cc1)c1ccccc1S2` [drawing 1488]: the “Binding rat Inh %” value ([3H]SR141716A) turned out to be 70%. For the same molecule, the Ki under setting [1] was 10 nM. `O=C(NCCc1cccnc1)c1ccc2c(c1)N=C(c1ccc(F)cc1)c1ccccc1S2` [drawing 1203]: the “Binding rat Inh %” value ([3H]SR141716A) is given as 96%. Besides, the Ki under setting [1] is 12.6 nM. Consider `O=C(NN1CCCCC1)c1ccc2c(c1)N=C(c1cccc(Br)c1)c1ccccc1S2` [drawing 1487], for which, under setting [1], the Ki was 10 nM. In the case of `O=C(NC1CCCC1)c1ccc2c(c1)N=C(c1cccc(F)c1)c1ccccc1S2` [drawing 1310], the “Binding rat Inh %” value ([3H]SR141716A) is 82%. The Ki under setting [1] is 25.1 nM. Consider `O=C(NCc1ccccc1Cl)c1ccc2c(c1)N=C(C1CCCCC1)c1ccccc1S2` [drawing 1491], for which the Ki under setting [1] was 10 nM. Regarding `O=C(NCCCC(F)(F)F)c1ccc2c(c1)N=C(c1ccc(Cl)cc1)c1ccccc1S2` [drawing 1226], under “[3H]SR141716A”, the “Binding rat Inh %” value is 89%. For the same molecule, the Ki under setting [1] was 0.631 nM. With `CC(NC(=O)c1ccc2c(c1)N=C(c1ccc(Cl)cc1)c1ccccc1S2)c1ccccc1` (stereo not drawn) [drawing 1493], the Ki under setting [1] was 63.1 nM. Take `O=C(NCc1cccnc1)c1ccc2c(c1)N=C(c1cccc(Br)c1)c1ccccc1S2` [drawing 1278]: under “[3H]SR141716A”, the “Binding rat Inh %” value was found to be 80%. In addition, the Ki under setting [1] is 20 nM. In the case of `CCOC(=O)N1CCC(NC(=O)c2ccc3c(c2)N=C(c2ccc(Cl)cc2)c2ccccc2S3)CC1` [drawing 1548], the Ki under setting [1] is 12.6 nM. In the case of `O=C(NCc1ccco1)c1ccc2c(c1)N=C(c1ccccc1F)c1ccccc1S2` [drawing 1435], the “Binding rat Inh %” value ([3H]SR141716A) came to 83%. Further, under setting [1], the Ki was 50.1 nM. For the molecule `CCCNC(=O)c1ccc2c(c1)N=C(c1cccc(Cl)c1)c1ccccc1S2` [drawing 1189], under “[3H]SR141716A”, the “Binding rat Inh %” value is recorded as 86%. Moreover, the Ki under setting [1] is 12.6 nM. Turning to `CC(NC(=O)c1ccc2c(c1)N=C(c1ccccc1F)c1ccccc1S2)c1ccccc1` (stereo not drawn) [drawing 1422], the Ki under setting [1] is 39.8 nM. As for `CC(C)NC(=O)c1ccc2c(c1)N=C(c1ccc(Cl)cc1)c1ccccc1S2` [drawing 1372], for the setting “[3H]SR141716A”, the “Binding rat Inh %” value is recorded as 90%. The Ki under setting [1] is 31.6 nM. `CC(CNC(=O)c1ccc2c(c1)N=C(c1cccc(Cl)c1)c1cc(F)ccc1S2)c1ccccc1` (stereo not drawn) [drawing 1196]: the Ki under setting [1] was 12.6 nM. With `O=C(NCCc1ccc(Cl)cc1)c1ccc2c(c1)N=C(c1ccc(Cl)cc1)c1ccccc1S2` [drawing 1376], the Ki under setting [1] was 5.01 nM. Consider `O=C(NC1CCCC1)c1ccc2c(c1)N=C(c1ccc(Cl)c(Cl)c1)c1ccccc1S2` [drawing 1399], for which the “Binding rat Inh %” value ([3H]SR141716A) is on record as 78%. Further, the Ki under setting [1] is 5.01 nM. With `CCCC1=Nc2cc(C(=O)NCc3ccccc3Cl)ccc2Sc2ccccc21` [drawing 1427], under setting [1], the Ki is 39.8 nM.

As for `CC(CNC(=O)c1ccc2c(c1)N=C(N1CCCCC1)c1ccccc1S2)c1ccccc1` (stereo not drawn) [drawing 1455], under setting [1], the Ki was 7.94 nM. Take `C[C@@H]1CCC[C@H](C)N1NC(=O)c1ccc2c(c1)N=C(c1ccc(F)cc1)c1ccccc1S2` [drawing 1356]: the “Binding rat Inh %” value ([3H]SR141716A) is 108%. For the same molecule, under setting [1], the Ki was 31.6 nM. As for `COc1ccc(C2=Nc3cc(C(=O)NNC(=O)c4ccccc4)ccc3Sc3ccccc32)cc1` [drawing 1535], the “Binding rat Inh %” value ([3H]SR141716A) came out at 68%. Further, the Ki under setting [1] is 79.4 nM. As to `O=C(NCc1ccccc1Cl)c1ccc2c(c1)N=C(c1ccc(Cl)cc1)c1ccccc1S2` [drawing 1341], the Ki under setting [1] is 25.1 nM. Take `O=C(NCCc1ccc(Cl)cc1)c1ccc2c(c1)N=C(c1ccccc1)c1ccccc1S2` [drawing 1440]: under setting [1], the Ki was 7.94 nM. Take `CCCCNC(=O)c1ccc2c(c1)N=C(c1ccc(Cl)s1)c1ccc(F)cc1S2` [drawing 1267]: the “Binding rat Inh %” value ([3H]SR141716A) stood at 93%. Moreover, under setting [1], the Ki is 20 nM. For `O=C(NCc1cccs1)c1ccc2c(c1)N=C(c1cccc(Cl)c1)c1ccccc1S2` [drawing 1272], under “[3H]SR141716A”, the “Binding rat Inh %” value came out at 109%. Moreover, under setting [1], the Ki was 2 nM. For `CCCNC(=O)c1ccc2c(c1)N=C(c1cccc(F)c1)c1ccccc1S2` [drawing 1286], in that order: 84% and 20 nM. Consider `CC(CNC(=O)c1ccc2c(c1)N=C(c1ccc(Cl)cc1)c1cc(F)ccc1S2)c1ccccc1` (stereo not drawn) [drawing 1524], for which the Ki under setting [1] is 10 nM.

With `O=C(NCc1ccc(F)cc1)c1ccc2c(c1)N=C(N1CCCCC1)c1ccccc1S2` [drawing 1212], under setting [1], the Ki is 12.6 nM. On to `O=C(NN1CCCCC1)c1ccc2c(c1)N=C(c1ccc(Cl)cc1)c1ccccc1O2`, for which, under setting [1], the Ki was 79.4 nM.

With `Cc1ccc(CNC(=O)c2ccc3c(c2)N=C(c2ccsc2)c2ccccc2S3)o1` [drawing 1346], the “Binding rat Inh %” value ([3H]SR141716A) amounted to 89%. Further, under setting [1], the Ki is 3.98 nM. For `CCC1=Nc2cc(C(=O)NCCc3ccc(OC)c(OC)c3)ccc2Sc2ccccc21`, the Ki under setting [1] was 63.1 nM. Consider `O=C(NCCC(F)(F)F)c1ccc2c(c1)N=C(c1ccc(F)cc1)c1ccccc1S2` [drawing 1418], for which the “Binding rat Inh %” value ([3H]SR141716A) came out at 105%. Further, the Ki under setting [1] is 6.31 nM. The like results for `O=C(NCc1cccs1)c1ccc2c(c1)N=C(c1ccccc1F)c1ccccc1S2` [drawing 1227] were, in that order, 94% and 15.8 nM.
